Assay [1] deals with T1, human STING protein (140-379) (Homo sapiens, UniProt Q86WV6, H232R).
T1 construct: 6XHIS-SUMO-hSTING (140-379); made in house; host or cells: BL-21(DE3) E. coli, pET vector
The assay is described as follows: Radiometric filtration binding competition assay (WT_FBA_HIS-SUMO-hSWAT). To be noted: read-out: WT-hSWAT IC50. In a few lines:
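Compounds (2-fold dilutions, 8 points, top 300 μM) were preincubated for 30 min with 0.5 μM recombinant C-terminal STING domain, human residues 140-379 or mouse residues 139-328, His-SUMO tagged. Displacement of a tritium-labelled probe was read by filtration and scintillation counting. Dose-response fits gave IC50, then Ki.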

The target of the next assay is T2, hSTING-R232 (Homo sapiens, UniProt Q86WV6, H232R).
T2 construct: recombinant mouse or human STING protein (aa140-379); 6xHis-SUMO elsewhere) (cleaved yes); made in house
T2 sequence (Q86WV6 140-379 H232R): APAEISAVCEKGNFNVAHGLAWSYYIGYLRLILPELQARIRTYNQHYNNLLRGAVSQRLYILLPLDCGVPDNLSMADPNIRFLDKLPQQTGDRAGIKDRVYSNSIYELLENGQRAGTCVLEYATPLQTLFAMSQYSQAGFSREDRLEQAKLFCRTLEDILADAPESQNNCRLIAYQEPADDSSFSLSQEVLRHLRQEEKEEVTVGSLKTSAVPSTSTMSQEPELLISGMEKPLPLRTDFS
Description: STING Differential Scanning Fluorimetry (DSF) assay, human. The class given is binding. To be noted: human STING R232-WT, 5 μM protein. The gist of the method: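 Purified STING C-terminal domain (aa140-379, R232), human or mouse, at 5 μM in 100 mM NaCl, 30 mM HEPES pH 7.5 with SYBR Orange, was heated at 0.5° C./min. Tm came from dF/dT; ΔTm and FC50 were derived from an 11-point 2-fold series from 300 μM, in duplicate.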

Another assay concerns the target T3, mSTING-R232 (aa139-378) (Mus musculus, UniProt Q3TBT3).
T3 construct: mSTING-R232 (aa139-378); 6xHis-SUMO; made in house
T3 sequence (Q3TBT3 139-378): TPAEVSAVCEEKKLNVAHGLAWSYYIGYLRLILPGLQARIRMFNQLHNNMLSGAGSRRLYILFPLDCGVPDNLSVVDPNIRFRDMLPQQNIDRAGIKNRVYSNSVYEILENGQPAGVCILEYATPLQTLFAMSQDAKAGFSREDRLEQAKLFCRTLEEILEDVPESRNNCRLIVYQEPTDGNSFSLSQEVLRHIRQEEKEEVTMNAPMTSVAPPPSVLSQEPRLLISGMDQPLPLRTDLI
The assay is described as follows: STING Differential Scanning Fluorimetry (DSF) assay, mouse. The class given is binding. To be noted: 5 μM protein. As to the method: A STING DSF assay was performed to determine protein thermostability shift in response to small molecule ligand binding. A STING thermostability shift assay based on differential scanning fluorimetry was used to measure (1) the net shift in melting temperature (ΔTm)between the apo and ligand-bound states of the STING protein and (2) the concentration of the thermal denaturation transition (FC50) as a surrogate measure of binding affinity (Kd). Briefly, recombinant mouse or human STING protein (aa140-379) comprising the C-terminal binding domain (R232-WT) were purified by affinity chromatography and further processed to remove the purification tag, followed by gel filtration to achieve purity >95%. Protein in assay buffer was transferred to a 384 well plate and incubated with the hydrophobic fluorescent dye SYBR Orange. A temperature ramp was applied to the plate and the resulting dye fluorescence was plotted as a function of temperature. The first derivative of this function (dF/dT) was then used to extrapolate the melting temperature of the protein at various concentrations of compound and determine the thermal denaturation profile of a protein/compound complex.
2. 5 μM purified Target STING Protein
4. Buffer: 100 mM NaCl, 30 mM HEPES, pH 7.5
5. Thermal Ramp: 0.5° C./min
7. 11 point, 2 fold dilution, duplicate, 300 μM high concentrations
Background: In DSF a fluorescence change marks the thermal transition of the protein.

Assay [2] deals with T4, mouse STING protein (139-328) (Mus musculus, UniProt Q3TBT3).
T4 construct: mouse STING protein (139-328); made in house
T4 sequence (Q3TBT3 139-328): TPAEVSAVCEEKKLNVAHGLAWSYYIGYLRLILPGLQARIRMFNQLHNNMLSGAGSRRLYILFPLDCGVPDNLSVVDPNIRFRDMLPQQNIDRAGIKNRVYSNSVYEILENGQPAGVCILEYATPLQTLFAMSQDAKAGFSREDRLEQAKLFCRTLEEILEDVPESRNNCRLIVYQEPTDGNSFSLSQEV
The assay is described as follows: Radiometric filtration binding competition assay (MOUSE_FBA_HIS-SUMO-mSWAT). To be noted: read-out: WT-mSWAT IC50. Here is the method:
A radiometric filtration binding competition assay was performed to quantify the binding affinity of compounds of the present application for the human or mouse STING protein, or associated HAQ human isoform. The competition format filtration binding assay detects the ability of small molecule compounds from binding to and inhibiting the subsequent binding of a tritiated [H3] […] The resulting dose response was fit by non-linear regression to determine an IC50 value, from which a Ki value for each compound was extrapolated.
Briefly, the recombinant C-terminal ligand binding domain of the human STING protein (140-379) or mouse STING protein (139-328) [0.5 μM] was incubated in the presence of a compound of the present application (8 point, 2 fold dilution starting at 300 μM) for 30 min or under control conditions. […] The resulting complexes were then filtered, dried, and scintillation fluid was added and the remaining radio signal was measured to determine the degree of compound ligand inhibition. This assay format was optimized for both the WT and HAQ isoforms of the human protein and the mouse orthologue protein.
Parameters optimized: • a. Form of protein: 6×HIS-SUMO tag or untagged • b. Concentration of target protein: Minimum concentration that achieved >80 max signal • c. Assay DMSO concentration: 10%-0.1% • d. […]

The next assay concerns the target T5, STING protein (Homo sapiens, UniProt Q86WV6, H232R).
T5 construct: host or cells: THP-1 dual reporter cells, TMEM173 modified from HAQ to R232 (THP1-dual-KI R232)
The assay is described as follows: Cell based reporter assay of IRF activation (THP1-dual-KI R232, IRF luciferase). To be noted: THP-1; read-out: THP1-dual-KI R232_IRF(Luciferase)_Activity Maximum measured (%). The gist of the method: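 THP-1 monocytes stably carried an ISG54/5×ISRE firefly luciferase IRF reporter, with TMEM173 knock-in H71R A230G Q293R (R232 variant), and there was no PMA pre-activation. Compounds were tested at 8 points, 2-fold, in duplicate from 150 µM. Cell Titer Glo was applied after supernatant removal.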
A general note: Reporter assays use an easily measured gene product as a stand-in for the process of interest.

The structures appear in SMILES notation.

T1 sequence (Q86WV6 140-379 H232R): as the sequence (Q86WV6 140-379 H232R) above
T5 sequence (Q86WV6 whole entry H232R): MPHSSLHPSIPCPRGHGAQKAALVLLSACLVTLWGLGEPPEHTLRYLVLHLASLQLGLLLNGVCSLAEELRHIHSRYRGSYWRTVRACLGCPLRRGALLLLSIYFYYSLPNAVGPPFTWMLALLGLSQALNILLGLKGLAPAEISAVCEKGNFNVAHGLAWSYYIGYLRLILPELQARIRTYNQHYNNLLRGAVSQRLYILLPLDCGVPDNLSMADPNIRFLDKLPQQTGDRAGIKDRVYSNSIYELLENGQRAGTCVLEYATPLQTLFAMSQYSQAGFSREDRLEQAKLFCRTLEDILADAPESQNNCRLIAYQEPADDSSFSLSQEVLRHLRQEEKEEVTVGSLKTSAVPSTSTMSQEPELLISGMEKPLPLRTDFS

Turning to `CCOc1c(Cl)ccc2c(=O)c3ccc(C)nc3n(CC(=O)O)c12` [Compound 2], the IC50 in assay [1] and in assay [2] was 100 to 300 µM in each case. For the same compound, the “WT_DSF_hSWAT Tm Shift (° C.)” value at hSTING-R232 was “C (“C” = 2-7° C.)”. Moreover, the “MOUSE DSF_6xHIS-SUMO Tm Shift (° C.)” value at mSTING-R232 (aa139-378) is “C (“C” = 5-15° C.)”. The Emax at STING protein was over 50%.
On to `CCOc1c(Cl)ccc2c(=O)c3ccc(C(C)C)nc3n(CC(=O)O)c12` [Compound 3], for which the IC50 in assay [1] and in assay [2] was 20 to 100 µM in each case. In addition, at hSTING-R232, the “WT_DSF_hSWAT Tm Shift (° C.)” value is listed as “D (“D” > 7° C.)”. Moreover, at mSTING-R232 (aa139-378), the “MOUSE DSF_6xHIS-SUMO Tm Shift (° C.)” value is given as “C (“C” = 5-15° C.)”. The Emax at STING protein was over 50%.
`CSc1c(Cl)ccc2c(=O)c3ccc(N(C)C4CC5(CCC5)C4)nc3n(CC(=O)O)c12` [Compound 47, sodium 2-(8-chloro-2-(methyl(spiro[3.3]heptan-2-yl)amino)-9-(methylthio)-5-oxobenzo[b][1,8]naphthyridin-10(5H)-yl)acetate]: the IC50 – broadly, the concentration at which inhibition is half-maximal – in assay [1] is under 20 µM. The “WT_DSF_hSWAT Tm Shift (° C.)” value on hSTING-R232 is given as “D (“D” > 7° C.)”. Also, the Emax on STING protein was over 50%.
Take `CSc1c(Cl)ccc2c(=O)c3ccc(N(CC4CC4)CC4CC(F)(F)C4)nc3n(CC(=O)O)c12` [Compound 37, sodium 2-(8-chloro-2-((Cyclopropylmethyl)((3,3-difluorocyclobutyl)methyl)amino)-9-(methylthio)-5-oxobenzo[b][1,8]naphthyridin-10(5H)-yl)acetate]: the IC50 in assay [1] is 20 to 100 µM. Besides, the “WT_DSF_hSWAT Tm Shift (° C.)” value on hSTING-R232 is reported as “D (“D” > 7° C.)”. Besides, the Emax on STING protein was over 50%.
In the same order, the values of `Cc1nccn1CCN(C)c1ccc2c(=O)c3ccc(Cl)c(N(C)C)c3n(CC(=O)O)c2n1` [Compound 82, sodium 2-[8-chloro-9-(dimethylamino)-2-{methyl[2-(2-methylimidazol-1-yl)ethyl]amino}-5-oxobenzo[b]1,8-naphthyridin-10-yl]acetate] are 100 to 300 µM, “D (“D” > 7° C.)” and 5 to 25%.
Turning to `CSc1c(Cl)ccc2c(=O)c3cc(Cl)c(N(C)C)nc3n(CC(=O)O)c12` [Compound 58, sodium 2-(3,8-dichloro-2-(dimethylamino)-9-(methylthio)-5-oxobenzo[b][1,8]naphthyridin-10(5H)-yl)acetate], the IC50 in assay [1] is under 20 µM. At hSTING-R232, the “WT_DSF_hSWAT Tm Shift (° C.)” value is listed as “D (“D” > 7° C.)”. The Emax on STING protein was over 50%.
Turning to `CSc1c(Cl)ccc2c(=O)c3ccc(N(C)CCn4ccnc4C)nc3n(CC(=O)O)c12` [Compound 81, sodium 2-(8-chloro-2-{methyl[2-(2-methylimidazol-1-yl)ethyl]amino}-9-(methylsulfanyl)-5-oxobenzo[b]1,8-naphthyridin-10-yl)acetate], the IC50 in assay [1] lay in the range of 20 to 100 µM. On hSTING-R232, the “WT_DSF_hSWAT Tm Shift (° C.)” value is “D (“D” > 7° C.)”. Also, the Emax on STING protein fell in the range of 5 to 25%.
In the case of `CSc1c(Cl)ccc2c(=O)c3ccc(N(C)C4CC(F)(F)C4)nc3n(CC(=O)O)c12` [Compound 41, Sodium 2-(8-chloro-2-((3,3-difluorocyclobutyl)(methyl)amino)-9-(methylthio)-5-oxobenzo[b][1,8]naphthyridin-10(5H)-yl)acetate], the IC50 in assay [1] was 20 to 100 µM. For the same compound, at hSTING-R232, the “WT_DSF_hSWAT Tm Shift (° C.)” value is recorded as “D (“D” > 7° C.)”. For the same compound, the Emax at STING protein is over 50%.
In the same order, the values of `COCCN(c1ccc2c(=O)c3ccc(Cl)c(SC)c3n(CC(=O)O)c2n1)[C@H]1C[C@@H](OC)C1` [Compound 74, sodium 2-(8-chloro-2-(((1s,3s)-3-methoxycyclobutyl)(2-methoxyethyl)amino)-9-(methylthio)-5-oxobenzo[b][1,8]naphthyridin-10(5H)-yl)acetate] are 100 to 300 µM, “D (“D” > 7° C.)” and over 50%.
For `Cc1ccc2c(=O)c3ccc(Cl)c(N(C)C)c3n(CC(=O)NC#N)c2n1` [Compound 11], in that order: over 300 µM, “B (“B” = 0-2° C.)” and under 5%.
In the same order, the values of `CSc1c(Cl)ccc2c(=O)c3ccc(N(C)C4CC(C)(C)C4)nc3n(CC(=O)O)c12` [Compound 48, sodium 2-(8-chloro-2-((3,3-dimethylcyclobutyl)(methyl)amino)-9-(methylthio)-5-oxobenzo[b][1,8]naphthyridin-10(5H)-yl)acetate] are under 20 µM, “D (“D” > 7° C.)” and over 50%.
Turning to `CN(C)c1c(Cl)ccc2c(=O)c3ccc(C(C)(C)C)nc3n(CC(=O)O)c12` [Compound 5, [2-tert-butyl-8-chloro-9-(dimethylamino)-5-oxobenzo[b]1,8-naphthyridin-10-yl]acetic acid], the IC50 in assay [1] is under 20 µM. The “WT_DSF_hSWAT Tm Shift (° C.)” value at hSTING-R232 is recorded as “D (“D” > 7° C.)”. Also, the Emax on STING protein is over 50%.
In the same order, the values of `CSc1c(Cl)ccc2c(=O)c3ccc(N(CC4CC4)C4CC(F)(F)C4)nc3n(CC(=O)O)c12` [Compound 42, sodium 2-(8-chloro-2-((cyclopropylmethyl)(3,3-difluorocyclobutyl)amino)-9-(methylthio)-5-oxobenzo[b][1,8]naphthyridin-10(5H)-yl)acetate] are 20 to 100 µM, “D (“D” > 7° C.)” and over 50%.

The values are drawn from patent US20220251079A1, “BENZO[B][1,8]NAPHTHYRIDINE ACETIC ACID DERIVATIVES AND METHODS OF USE” (STINGTHERA, INC., priority 2019, published 2022).
